Assay results from patent US11203773B2, “Designer ribosomes and methods of use thereof for incorporating non-standard amino acids into polypeptides” (Yale University, priority 2016, dated 2021).
Like-named read-outs stand apart in the source and are kept apart here.

Key:
[1] = test system: E. coli strains (BL21 (DE3)) with pUC18 rrnb plasmids; assay: Screen of erythromycin-resistant library for sensitivity to β3-puromycin (growth inhibition, OD600); assay type: cell-based; conditions: 250 μM β^3-puromycin, E. coli with pUC18 plasmid encoding WT rrnb
Procedure: (§3) To screen the resulting E. coli strains for antibiotic resistance, 2 μL of the 15% glycerol stocks prepared above were added to 98 μL of growth assay buffer (LB media (pH 8.35), 100 μg/mL carbenicillin, 1.0 mM IPTG, 6.8 μM erythromycin) in 384-well plates (Corning #3707). […] After 16-18 h, the extent of cell growth inhibition in the presence of antibiotic was determined by measuring the OD600 of each well using a SpectraMax M5 plate reader (Molecular Devices). The antibiotic-dependent inhibition of cell growth in each well was determined using Equation 4: [100−(OD600+A/OD600−A)×100] Equation 4 In this equation, OD600+A represents OD600 of wells containing antibiotic and OD600−A represents OD600 of wells lacking antibiotic.
The 1986 erythromycin-resistant clones identified above were then screened for sensitivity to β^3-puromycin sensitivity as described above, except that 250 μM β^3-puromycin was substituted for erythromycin.

E. coli GlyRS [2] = biological target: T1, E. coli GlyRS (Escherichia coli, UniProt P00960); conditions: adenylation
T1 sequence (P00960 whole entry): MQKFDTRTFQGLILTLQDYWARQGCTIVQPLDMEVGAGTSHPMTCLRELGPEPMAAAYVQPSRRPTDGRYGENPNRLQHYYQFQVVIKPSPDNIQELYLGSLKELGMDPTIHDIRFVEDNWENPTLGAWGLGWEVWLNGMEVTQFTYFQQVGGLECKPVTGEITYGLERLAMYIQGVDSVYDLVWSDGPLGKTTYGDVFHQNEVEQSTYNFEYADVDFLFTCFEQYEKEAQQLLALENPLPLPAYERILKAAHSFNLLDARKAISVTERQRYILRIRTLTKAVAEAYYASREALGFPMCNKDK
T1 sequence (P00961 whole entry, further chain): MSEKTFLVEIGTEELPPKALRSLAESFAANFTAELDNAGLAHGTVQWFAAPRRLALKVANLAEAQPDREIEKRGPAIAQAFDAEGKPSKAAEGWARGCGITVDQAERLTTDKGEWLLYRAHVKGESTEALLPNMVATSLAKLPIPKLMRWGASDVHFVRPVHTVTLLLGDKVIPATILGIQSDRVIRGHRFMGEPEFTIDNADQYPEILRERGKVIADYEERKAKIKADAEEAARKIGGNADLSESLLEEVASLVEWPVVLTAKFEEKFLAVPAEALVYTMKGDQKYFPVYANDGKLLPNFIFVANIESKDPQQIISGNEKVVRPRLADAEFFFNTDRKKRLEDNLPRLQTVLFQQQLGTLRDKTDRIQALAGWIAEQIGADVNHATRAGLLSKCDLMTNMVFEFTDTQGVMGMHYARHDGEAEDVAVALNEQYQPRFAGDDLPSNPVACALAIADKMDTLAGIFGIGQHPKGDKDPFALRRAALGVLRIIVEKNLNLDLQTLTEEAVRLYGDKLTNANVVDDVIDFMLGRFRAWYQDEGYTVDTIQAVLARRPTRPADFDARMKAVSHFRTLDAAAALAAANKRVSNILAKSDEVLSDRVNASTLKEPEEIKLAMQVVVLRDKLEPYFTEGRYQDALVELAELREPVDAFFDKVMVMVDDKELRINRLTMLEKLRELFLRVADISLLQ
Procedure: Adenylation of α- and β-Amino Acids Catalyzed by E. coli PheRS, GlyRS, MetRS, and GluRS. […] Briefly, assay mixtures (50 μL) assembled at 25° C. contained the requisite α- or β^3-amino acid substrate (between 5 μM and 5 mM) in 100 mM HEPES (pH 7.0) containing 100 mM KCl, 15 mM MgCl2, 2 mM ATP, 0.5 mM NaPPi, and 50 μCi [^32P]-NaPPi). Reactions were initiated upon addition of enzyme (10 nM MetRS, 10 nM PheRS, or 50 nM GlyRS; 100 nM GluRS for reactions with α-Glu or 1.13 μM GluRS for reactions with β^3-Glu), incubated for various times (10 sec to 10 min), and halted by adding a 5 μL reaction aliquot to 100 μL quenching solution (10% charcoal, 0.5% HCl). 50 μL of 200 mM NaPPi in 1.5 N HCl was then added to each quenched reaction to decrease nonspecific binding of pyrophosphate to the charcoal. Each quenched reaction was then filtered through Whatman filter paper (number 3), previously washed with washing solution (200 mM NaPPi in 1 N HCl) using a 96-well BIO-DOT® apparatus (BioRad). Each well of the apparatus was then washed four times with 200 μL aliquots of washing solution (by pipetting washing solution up and down at least 10 times per wash) to minimize nonspecific binding of pyrophosphate to charcoal. Each experimental well was paired with an analogous control well (no-enzyme control) that lacked enzyme; a single membrane contained time points for both α- and β^3-amino acid substrates and all no-enzyme controls. The membrane was allowed to dry and was protected with a sheet of Microseal B adhesive seals (Biorad) prior to exposure to a BAS Storage Phosphor screen. Screens were imaged on a Typhoon 9500FLA biomolecule imager and the signal intensity of each dot was quantified using ImageJ to determine the relative amount of [^32P]-ATP formed as a function of time (Ctime). Each raw value were corrected by subtracting the intensity of the dot corresponding to the appropriate no-enzyme control (Cblank) and the resulting corrected values of Ccorr (representing the relative amounts of ^32P-ATP formed) were plotted as a function of time to determine values of relative ^32P-ATP formed per minute. Those values were divided by the concentration of enzyme used, and the data was plotted as relative specific activity (^32P-ATP formed min^−1×μM^−1 enzyme) and fitted using Prism by performing nonlinear regression using the least squares method and Equation 1 to obtain RSA (relative specific activity) and KM values (Equation 1 and Table 2).
In Equation 1, v is the apparent relative specific activity (relative ^32P-ATP formed per minute) obtained at each substrate concentration divided by the enzyme concentration, RSA is the relative specific activity, S is the concentration of substrate, and KM is the Michaelis-Menten constant.

[3] = test system: DHFR position 128 translated in E. coli BL21 (DE3); assay: Spectral counting (LC-MS/MS of tryptic peptides) of β3-(p-Br)Phe and α-Phe incorporation into DHFR in vivo; assay type: cell-based; conditions: cells expressing 040329 ribosomes
From the text: (§1) To evaluate the extent of in vivo β^3-amino acid incorporation, BL21 (DE3) cells were co-transformed via electroporation (vide infra) with two plasmids. […] The other plasmid encoded either the WT rrnb sequence (pLK35-rrnb), the 040329 mutant reported by Hecht (pLK35-040329.rrnb), or the P7A7 mutant (pLK35-P7A7.rrnb) identified during the puromycin sensitivity screen described above.
ii. β^3-amino acid incorporation. The subsequent protocol for in vivo β^3-amino acid incorporation employed minimal media and was adapted from procedures reported by Tirrell and Cropp (Liu, et al., Bioorg Med Chem Lett, 20:5613 (2010); Mandavi, et al., J Am Chem Soc, 135:2979 (2013)). Briefly, all 5 mL of the co-transformed cells prepared as described above were diluted into 100 mL of LB containing […] of kanamycin and […] of carbenicillin and grown to OD600=1.0, spun down, and then resuspended in 1/10th the original volume of 19/20 minimal media (10.5 g/L M9 salts, 0.1 mM CaCl2, 1 mM MgSO4, 1% glycerol, 100 μM of each amino acid (minus α-Phe), 25 mg/L thiamine, […] carbenicillin, 30 ng/mL kanamycin, 1 mM IPTG) supplemented with 1 mM of α-Phe or a β^3-Phe analog. Cells were grown overnight (18 h) at 37° C. while shaking (200 rpm). The cells were harvested by centrifugation (10 min at 4000×g) and resuspended in lysis buffer (50 mM NaH2PO4, 300 mM NaCl, 10 mM imidazole (pH 8.0)). Lysis was performed by sonication (Branson Sonifier 250) with 5 cycles of 20 s on, 20 s off. Lysed cells were then centrifuged for 20 min at 15000×g. The clarified cell lysate was incubated with Ni-NTA resin (Qiagen) for 1 h while gently rotating at 4° C. The Ni-NTA column was washed with lysis buffer prior to eluting proteins with elution buffer (50 mM NaH2PO4, 300 mM NaCl, 300 mM imidazole (pH 8.0)). Elutions were analyzed with SDS-PAGE to prepare material for in-gel trypsin digestions. Controls included side-by-side growths in (1) unsupplemented 19/20 minimal media, which contains only low levels of α-Phe present (negative control); (2). […]

E. coli GlyRS [4] = biological target: T1, E. coli GlyRS; conditions: aminoacylation
[5] = test system: BL21(DE3) cells expressing 040329 ribosomes along with WT ribosomes; assay: Expression of DHFR in 19/20 minimal media supplemented with amino acid (SDS-PAGE); assay type: cell-based, E. coli; conditions: 040329 + WT ribosomes, media supplemented with 1 mM of the amino acid
From the text: as §1
(§2) ii. β^3-amino acid incorporation. The subsequent protocol for in vivo β^3-amino acid incorporation employed minimal media and was adapted from procedures reported by Tirrell and Cropp (Liu, et al., Bioorg Med Chem Lett, 20:5613 (2010); Mandavi, et al., J Am Chem Soc, 135:2979 (2013)). Briefly, all 5 mL of the co-transformed cells prepared as described above were diluted into 100 mL of LB containing 50 ng/mL of kanamycin and […] of carbenicillin and grown to OD600=1.0, spun down, and then resuspended in 1/10th the original volume of 19/20 minimal media (10.5 g/L M9 salts, 0.1 mM CaCl2, 1 mM MgSO4, 1% glycerol, 100 μM of each amino acid (minus α-Phe), 25 mg/L thiamine, […] carbenicillin, 30 ng/mL kanamycin, 1 mM IPTG) supplemented with 1 mM of α-Phe or a β^3-Phe analog. Cells were grown overnight (18 h) at 37° C. while shaking (200 rpm). The cells were harvested by centrifugation (10 min at 4000×g) and resuspended in lysis buffer (50 mM NaH2PO4, 300 mM NaCl, 10 mM imidazole (pH 8.0)). Lysis was performed by sonication (Branson Sonifier 250) with 5 cycles of 20 s on, 20 s off. Lysed cells were then centrifuged for 20 min at 15000×g. The clarified cell lysate was incubated with Ni-NTA resin (Qiagen) for 1 h while gently rotating at 4° C. The Ni-NTA column was washed with lysis buffer prior to eluting proteins with elution buffer (50 mM NaH2PO4, 300 mM NaCl, 300 mM imidazole (pH 8.0)). Elutions were analyzed with SDS-PAGE to prepare material for in-gel trypsin digestions. Controls included side-by-side growths in (1) unsupplemented 19/20 minimal media, which contains only low levels of α-Phe present (negative control); (2). 19/20 minimal media supplemented with 1 mM α-Phe (positive control) and (3) and 19/20 minimal media supplemented with 1 mM β^3-Gly (negative control; β^3-aa that is not a β^3-Phe analog).

[6] = test system: BL21(DE3) cells expressing P7A7 ribosomes along with WT ribosomes; assay: as above; assay type: cell-based, E. coli; conditions: media supplemented with 1 mM of the amino acid
From the text: as §1, §2

[7] = test system: BL21(DE3) cells expressing only WT ribosomes; assay: as above; assay type: cell-based, E. coli; conditions: 19/20 minimal media supplemented with 1 mM of the amino acid
From the text: as §1, §2

E. coli GlyRS [8] = biological target: T1, E. coli GlyRS; conditions: deacylation of aminoacyl-tRNA, GlyRS 2 μM, 25° C.
Procedure: Deacylation assays. Large scale (200 μL) aminoacylation reactions were initiated using the conditions described above (iv). The reactions were allowed to proceed for 1 h at 37° C., after which each reaction mixture was phenol/chloroform extracted. In each case, the aminoacylated tRNA product was ethanol precipitated, and the buffer was exchanged using a micro Bio-Spin 6 column (BioRad) following the procedure specified by the manufacturer and 100 mM HEPES (pH 8.0) containing 100 mM KCl. The precise extent of aminoacylation was calculated using the procedure described above; the 2 μM concentration corresponds to total aminoacylated tRNA. Assays were performed at 25° C. in a 50 μL reaction with 2 μM [^32P]-aminoacyl-tRNA in 100 mM HEPES (pH 7.0) containing 100 mM KCl and 15 mM MgCl2.

[9] = test system: E. coli strains (BL21 (DE3)) with pUC18 rrnb plasmids; assay: Screen of library for sensitivity to erythromycin (growth inhibition, OD600); assay type: cell-based; conditions: 6.8 μM erythromycin, E. coli with pUC18 plasmid encoding WT rrnb, 16-18 h
Procedure: as §3

SMILES: COc1ccc(CC(N)CC(=O)NC2C(CO)OC(n3cnc4c(N(C)C)ncnc43)C2O)cc1 (stereo not drawn) [β^3-puromycin]
- growth inhibition [1]: lack of growth inhibition

SMILES: NCCC(=O)O [β-Gly, β^3-glycine]
- Km (E. coli GlyRS [2]): 68.4 ± 47.3 µM
- kcat (min^−1) or RSA (^32P-ATP formed min^−1 enzyme μM^−1) (E. coli GlyRS [2]; RSA, 25° C., pH 7.0): 146.4 ± 29.2 ^32P-ATP formed min^−1 enzyme μM^−1
- incorporation at position 128 of DHFR (LC-MS/MS) [3]: no evidence
- Km (E. coli GlyRS [4]): 11.1 ± 2.8 µM
- kcat (E. coli GlyRS [4]; 2 μM tRNA): 0.0517 ± 0.0017 s⁻¹
- level of DHFR [5]: significant levels
- level of DHFR [6]: lower levels
- amount of DHFR generated [7]: trace amounts
- krev (apparent rate of deacylation) (E. coli GlyRS [8]): 0.71 ± 0.09 min⁻¹

SMILES: CC[C@H]1OC(=O)[C@H](C)[C@@H](O[C@H]2C[C@@](C)(OC)[C@@H](O)[C@H](C)O2)[C@H](C)[C@@H](O[C@@H]2O[C@H](C)C[C@H](N(C)C)[C@H]2O)[C@](C)(O)C[C@@H](C)C(=O)[C@H](C)[C@@H](O)[C@]1(C)O [erythromycin]
- growth inhibition [9]: full growth inhibition
